Source: PubChem BioAssay (NCI)
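The compound was tested at five concentrations on cells cultured in 96-well plates, with a 48-hour exposure period. At the GI50, growth is halved. TGI: total growth inhibition.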

Columns and labels:
Assay in all cases: NCI tumour cell line growth inhibition, 48 h
A498 renal = system: A498 renal
A549 NSCLC = system: A549 NSCLC
ACHN renal = system: ACHN renal
BT-549 breast = system: BT-549 breast
CAKI-1 renal = system: CAKI-1 renal
CCRF-CEM leukemia = system: CCRF-CEM leukemia
COLO 205 colon = system: COLO 205 colon
DU-145 prostate = system: DU-145 prostate
EKVX NSCLC = system: EKVX NSCLC
HCC-2998 colon = system: HCC-2998 colon
HCT-116 colon = system: HCT-116 colon
HCT-15 colon = system: HCT-15 colon
HL-60(TB) leukemia = system: HL-60(TB) leukemia
HOP-62 NSCLC = system: HOP-62 NSCLC
HOP-92 NSCLC = system: HOP-92 NSCLC
HS 578T breast = system: HS 578T breast
HT29 colon = system: HT29 colon
IGROV1 ovarian = system: IGROV1 ovarian
K-562 leukemia = system: K-562 leukemia
KM12 colon = system: KM12 colon
LOX IMVI melanoma = system: LOX IMVI melanoma
MALME-3M melanoma = system: MALME-3M melanoma
MCF7 breast = system: MCF7 breast
MDA-MB-231 breast = system: MDA-MB-231 breast
MDA-MB-435 = system: MDA-MB-435
MOLT-4 leukemia = system: MOLT-4 leukemia
NCI-H226 lung = system: NCI-H226 lung
NCI-H23 lung = system: NCI-H23 lung
NCI-H460 lung = system: NCI-H460 lung
NCI-H522 lung = system: NCI-H522 lung
NCI/ADR-RES ovarian = system: NCI/ADR-RES ovarian
OVCAR-3 ovarian = system: OVCAR-3 ovarian
OVCAR-4 ovarian = system: OVCAR-4 ovarian
OVCAR-5 ovarian = system: OVCAR-5 ovarian
OVCAR-8 ovarian = system: OVCAR-8 ovarian
PC-3 prostate = system: PC-3 prostate
RPMI-8226 leukemia = system: RPMI-8226 leukemia
RXF 393 renal = system: RXF 393 renal
SF-268 CNS = system: SF-268 CNS
SF-295 CNS = system: SF-295 CNS
SF-539 CNS = system: SF-539 CNS
SK-MEL-2 melanoma = system: SK-MEL-2 melanoma
SK-MEL-28 melanoma = system: SK-MEL-28 melanoma
SK-MEL-5 melanoma = system: SK-MEL-5 melanoma
SK-OV-3 ovarian = system: SK-OV-3 ovarian
SN12C renal = system: SN12C renal
SNB-19 CNS = system: SNB-19 CNS
SNB-75 CNS = system: SNB-75 CNS
SR leukemia = system: SR leukemia
SW-620 colon = system: SW-620 colon
T-47D breast = system: T-47D breast
TK-10 renal = system: TK-10 renal
U251 CNS = system: U251 CNS
UACC-257 melanoma = system: UACC-257 melanoma
UACC-62 melanoma = system: UACC-62 melanoma

CC1SC(c2ccccc2)N(CCc2cccs2)C1=O (stereo not given)
GI50 (A498 renal): 2.63 µM | TGI (A498 renal): 14.2 µM | GI50 (A549 NSCLC): 4.16 µM | TGI (A549 NSCLC): 15.1 µM | GI50 (ACHN renal): 4.69 µM | TGI (ACHN renal): 17.9 µM | GI50 (BT-549 breast): 3.35 µM | TGI (BT-549 breast): 12.9 µM | GI50 (CAKI-1 renal): 3.15 µM | TGI (CAKI-1 renal): 16.2 µM | GI50 (CCRF-CEM leukemia): 3.26 µM | TGI (CCRF-CEM leukemia): 35.2 µM | GI50 (COLO 205 colon): 3.2 µM | TGI (COLO 205 colon): 10.8 µM | GI50 (DU-145 prostate): 7.08 µM | TGI (DU-145 prostate): 19.9 µM | GI50 (EKVX NSCLC): 2.77 µM | TGI (EKVX NSCLC): 12.7 µM | GI50 (HCC-2998 colon): 4.4 µM | TGI (HCC-2998 colon): 16.4 µM | GI50 (HCT-116 colon): 2.99 µM | TGI (HCT-116 colon): 12.3 µM | GI50 (HCT-15 colon): 3.86 µM | TGI (HCT-15 colon): 18.8 µM | GI50 (HL-60(TB) leukemia): 2.85 µM | TGI (HL-60(TB) leukemia): 8.67 µM | GI50 (HOP-62 NSCLC): 11 µM | TGI (HOP-62 NSCLC): 25.9 µM | GI50 (HOP-92 NSCLC): 1.27 µM | TGI (HOP-92 NSCLC): 5.59 µM | GI50 (HS 578T breast): 4.52 µM | TGI (HS 578T breast): 38.1 µM | GI50 (HT29 colon): 4.03 µM | TGI (HT29 colon): 15.2 µM | GI50 (IGROV1 ovarian): 4.72 µM | TGI (IGROV1 ovarian): 74.4 µM | GI50 (K-562 leukemia): 3.94 µM | TGI (K-562 leukemia): > 100 µM | GI50 (KM12 colon): 3.44 µM | TGI (KM12 colon): 13.3 µM | GI50 (LOX IMVI melanoma): 2.9 µM | TGI (LOX IMVI melanoma): 13.7 µM | GI50 (MALME-3M melanoma): 5.47 µM | TGI (MALME-3M melanoma): 26.1 µM | GI50 (MCF7 breast): 3.36 µM | TGI (MCF7 breast): 15.2 µM | GI50 (MDA-MB-231 breast): 3.3 µM | TGI (MDA-MB-231 breast): 16.1 µM | GI50 (MDA-MB-435): 3.63 µM | TGI (MDA-MB-435): 16.7 µM | GI50 (MOLT-4 leukemia): 2.98 µM | TGI (MOLT-4 leukemia): 12.4 µM | GI50 (NCI-H226 lung): 6.15 µM | TGI (NCI-H226 lung): 26.4 µM | GI50 (NCI-H23 lung): 3.23 µM | TGI (NCI-H23 lung): 15.1 µM | GI50 (NCI-H460 lung): 3.55 µM | TGI (NCI-H460 lung): 14.7 µM | GI50 (NCI-H522 lung): 1.89 µM | TGI (NCI-H522 lung): 8.76 µM | GI50 (NCI/ADR-RES ovarian): 3.12 µM | TGI (NCI/ADR-RES ovarian): 21.1 µM | GI50 (OVCAR-3 ovarian): 3.03 µM | TGI (OVCAR-3 ovarian): 13.3 µM | GI50 (OVCAR-4 ovarian): 2.45 µM | TGI (OVCAR-4 ovarian): 13 µM | GI50 (OVCAR-5 ovarian): 10.3 µM | TGI (OVCAR-5 ovarian): 27 µM | GI50 (OVCAR-8 ovarian): 4.72 µM | TGI (OVCAR-8 ovarian): 31.2 µM | GI50 (PC-3 prostate): 2.68 µM | TGI (PC-3 prostate): 15.7 µM | GI50 (RPMI-8226 leukemia): 2.44 µM | TGI (RPMI-8226 leukemia): 8.07 µM | GI50 (RXF 393 renal): 6.76 µM | TGI (RXF 393 renal): 20.4 µM | GI50 (SF-268 CNS): 3.56 µM | TGI (SF-268 CNS): 16.1 µM | GI50 (SF-295 CNS): 3.35 µM | TGI (SF-295 CNS): 15.7 µM | GI50 (SF-539 CNS): 5.14 µM | TGI (SF-539 CNS): 19.2 µM | GI50 (SK-MEL-2 melanoma): 3.42 µM | TGI (SK-MEL-2 melanoma): 14.7 µM | GI50 (SK-MEL-28 melanoma): 4.96 µM | TGI (SK-MEL-28 melanoma): 17.9 µM | GI50 (SK-MEL-5 melanoma): 1.67 µM | TGI (SK-MEL-5 melanoma): 3.15 µM | GI50 (SK-OV-3 ovarian): 7.64 µM | TGI (SK-OV-3 ovarian): 20.9 µM | GI50 (SN12C renal): 5.43 µM | TGI (SN12C renal): 20.1 µM | GI50 (SNB-19 CNS): 5.06 µM | TGI (SNB-19 CNS): 19.9 µM | GI50 (SNB-75 CNS): 3.01 µM | TGI (SNB-75 CNS): 17.8 µM | GI50 (SR leukemia): 3.06 µM | TGI (SR leukemia): 16.4 µM | GI50 (SW-620 colon): 4.6 µM | TGI (SW-620 colon): 18.3 µM | GI50 (T-47D breast): 2.16 µM | TGI (T-47D breast): 18.7 µM | GI50 (TK-10 renal): 4.05 µM | TGI (TK-10 renal): 26 µM | GI50 (U251 CNS): 3.95 µM | TGI (U251 CNS): 14.5 µM | GI50 (UACC-257 melanoma): 4.73 µM | TGI (UACC-257 melanoma): 14.5 µM | GI50 (UACC-62 melanoma): 3.42 µM | TGI (UACC-62 melanoma): 18.8 µM
